Assay results taken from PMC8828969, “Arylamine N-Acetyltransferase 1 Activity is Regulated by the Protein Acetylation Status” (Frontiers in Pharmacology, 2022).
Read-outs that look alike come from different tables or passages of the source.

What was measured:
[1] = tested on: Sirtuin; assay: Sirtuin activity in inhibitor-treated cells (Sirtuin Activity kit, lysate fluorescence); type: cell-based, human
Description: (§1) The next day, cells were treated with increasing concentrations, (0–100 µM) of the inhibitor for 48 h. Following incubation, the enzymatic activity of Sirtuin and HDAC proteins was quantified using the Sirtuin Activity kit (MilliporeSigma, St. Louis, MO, United States), according to manufacturer’s instructions. […] Supernatant was recovered ant kept on ice. Samples were normalized to the lowest protein concentration sample using the Bradford protein assay (Bio-Rad, Hercules, CA, United States). Then, 20 µL of diluted cell lysate were transferred into a 96 well plate, the activity reaction mix was prepared as recommended, and the reaction was incubated for 15 min at 37°C.

[2] = tested on: NAT1; assay: NAT1 catalytic activity (PABA N-acetylation, HPLC) in lysate of treated ZR-75-1 cells; type: cell-based, human; details: for Ki: ZR-75-1 cells treated 48 h, read-out: Ki, decrease of NAT1 catalytic activity (PABA N-acetylation); for lowest concentration that significantly decreased NAT1 catalytic activity / lowest concentration that significantly upregulated NAT1 catalytic activity: ZR-75-1 cells, 48 h
Description: (§2) In vitro NAT1 enzymatic activity was quantified towards p-aminobenzoic acid (PABA). N-acetyl-PABA was quantified by High Performance Liquid Chromatography (HPLC) as previously described ([Hein et al., 2006]; [Stepp et al., 2018]). Briefly, cells were scaped from the plate and washed in ice-cold Phosphate Buffered Saline (PBS) and lysed in 20 mM sodium phosphate pH 7.4, 1 mM ethylenediaminetetraacetic acid (EDTA), 0.2% triton X-100, 1 mM dithiothreitol (DTT), 100 µM phenylmethanesulfonyl fluoride (PMSF), 1 μg/ml aprotinin, and 2 µM pepstatin A (MilliporeSigma, St. Louis, MO, United States). Cell lysate was centrifuged at 15,000 × g for 10 min, supernatant was recovered, and protein concentration was quantified as mentioned before. NAT1 enzymatic assay reactions containing 50 µL of suitable cell lysate, 300 µM PABA, and AcCoA (1 mM), were incubated at 37°C for 10 min. Reactions were terminated by the addition of 10 µL of 1 M acetic acid, then proteins were precipitated by centrifugation (15,000 × g for 20 min in the cold room) and supernatant was transferred to HPLC vials and injected onto a LiChrospher 100 RP-18 (125 mm × 4 mm; 5 µm) reverse phase column. Reactants and products were eluted with an Agilent 1260 Infinity II system (Agilent Technologies, Santa Clara, CA, United States). Separation of N-acetyl-PABA was achieved using a gradient of 96:4 of 20 mM sodium perchlorate pH 2.5: acetonitrile (ACN) to 88:12 20 mM sodium perchlorate:ACN over 3 min. Absorbance was recorded at 280 nm. Four independent measurements were performed in duplicate for each cell condition and cell line.
(§3) MDA-MB-231 or ZR-75-1 cells were plated in 12-well plates, at a density of 2 × 10^5 cells/well and allowed to attach to the plate overnight. […] After 48 h of drug treatment, plates were recovered and the cells were harvested for NAT1 activity assays, NAT1 mRNA and protein expression quantification as described above. For the siRNA transfection experiments, after 72 h of transfection, cells were harvested and processed as described above for the cells treated with inhibitors.

[3] = tested on: KDAC proteins; assay: KDAC (Sirtuin / HDAC) activity, both breast cancer cell lines (discussion summary); type: cell-based, human; details: MDA-MB-231 and ZR-75-1 cell lines
[4] = tested on: NAT1b transcript; assay: NAT1b mRNA quantification by qRT-PCR in ZR-75-1 cells; type: cell-based, human; details: 48 h
Description: (§4) NAT1 mRNA levels were measured as described previously ([Millner et al., 2012]). Primers were designed to recognize only NAT1b expression. Briefly, total RNA was isolated cells lines using the RNeasy Mini kit (Qiagen, Hilden, GER) followed by removal of contaminating DNA by treatment with Turbo DNA-free (Ambion, Austin, TX, United States). cDNA was synthetized using the High-Capacity Reverse transcriptase kit (Life Technologies, Carlsbad, CA, United States) using 1 µg of total RNA in a 20 µL reaction following manufacturer’s instructions.
as §3

[5] = tested on: NAT1; assay: NAT1 acetylation status (acetyl-lysine immunoprecipitation, AcNAT1/NAT1) in MDA-MB-231 cells; type: cell-based, human; details: 48 h, vs vehicle
Description: (§5) In order to assess the acetylation status of NAT1 protein, MDA-MB-231(6 × 10^5) and ZR-75-1 (3 × 10^6) cells were seeded onto 100 mm cell culture dishes and allowed to attach overnight. […] After 48-h drug treatment or 72-h siRNA transfection, cells were collected and lysed following the protocol of Signal-Seeker Acetyl-Lysine Detection kit (Citoskeleton, Denver, CO, United States). Briefly, after the incubation period concluded, cells were washed twice with PBS and lysed in ice-cold lysis buffer, 20 mM Tris-HCl (pH 7.4), 5 mM EDTA, 150 mM NaCl, 0.5% Triton X-100, 10 mM sodium butyrate and protease/phosphatase inhibitors cocktail. Cell lysates were incubated on ice for 20 min and isolated by centrifugation at 16,000 × g for 20 min. Supernatants were recovered and protein concentration was measured as described before. 150 µg of lysate was used for the IP; 1/10 of the sample was kept as input control. Thereafter, Acetyl Lysine Affinity Beads were added to the samples and incubated at 4°C for 2 h. Beads were washed three times with the provided wash buffer and the immunoprecipitated proteins were eluted and denatured with 2 × Laemmli buffer and boiled for 5 min. Protein samples were then separated by SDS-PAGE for 1 h at 150 V. Proteins were then transferred to PVDF membranes (Bio-Rad, Hercules, CA, United States) for 2 h at 100 V and blocked for 30 min in 1×fish gelatin (Biotium Inc., Fremont, CA, United States. After blocking, membranes were incubated with rabbit monoclonal anti-NAT1 antibody (ab109114, Abcam, Cambridge, United Kingdom) and mouse monoclonal anti-β-actin, as endogenous control (A2228, Sigma-Aldrich, St. Louis, MO, United States) overnight at 4°C with gentle agitation. The next day, the membranes were washed with TBST and incubated with secondary antibodies IRDye® 800 CW goat anti-rabbit and 680RD goat anti-mouse (LI-COR Biosciences, Lincoln, NE, United States) at room temperature for 1 hour. Finally, plates were washed with TBST and scanned using an Odyssey imaging system (LI-COR Biosciences, Lincoln, NE, United States). After detection of NAT1, the membranes were re-probed for acetyl-lysine-HRP detection using the antibody provided in the kit. Chemiluminescent detection was captured using a Fotodyne imaging system (Fotodyne Inc., Hartland, WI, United States). Densitometric analysis on the immunoblots was performed using ImageJ ([Schneider et al., 2012]) software or IMAGE STUDIO Lite software (LI-COR Biosciences, Lincoln, NE, United States), which enables quantitative analysis of blotting signals. NAT1 and acetyl-lysine levels were normalized to β-actin.

[6] = tested on: NAT1b transcript; assay: NAT1b mRNA quantification by qRT-PCR in MDA-MB-231 cells; type: cell-based, human; details: 48 h
Description: as §4, §3

[7] = tested on: NAT1; assay: NAT1 acetylation status (acetyl-lysine immunoprecipitation, AcNAT1/NAT1) in ZR-75-1 cells; type: cell-based, human; details: 48 h; for acetylation of NAT1 lysine residues, effect in words: vs vehicle; for NAT1 acetylation status, fold increase: vs vehicle control
Description: as §5

[8] = tested on: NAT1; assay: NAT1 catalytic activity (PABA N-acetylation, HPLC) in lysate of treated MDA-MB-231 cells; type: cell-based, human; details: for Ki: MDA-MB-231 cells treated 48 h, read-out: Ki, decrease of NAT1 catalytic activity (PABA N-acetylation); for lowest concentration that significantly decreased NAT1 catalytic activity / lowest concentration that significantly increased NAT1 N-acetylation of PABA: MDA-MB-231 cells, 48 h
Description: as §2, §3

[9] = tested on: HDAC; details: ZR-75-1 cells, vs vehicle control
[10] = tested on: NAT1; design: method as in Paterson et al., 2011; details: after treatment with TSA; ref Paterson et al., 2011; cited from earlier work
[11] = tested on: HDAC; details: MDA-MB-231 cells, vs vehicle control; for lowest concentration that significantly decreased HDAC deacetylase activity: 48 h
Description: as §1

[12] = tested on: NAT1b transcript; design: method as in Paterson et al., 2011; details: after treatment with TSA; ref Paterson et al., 2011; cited from earlier work
[13] = MDA-MB-231 cells, 48 h, vs vehicle control
[14] = MDA-MB-231 cells, 48 h treatment, vs vehicle control; read-out: IC50, Sirtuin deacetylase activity
[15] = ZR-75-1 cells, 48 h, vs vehicle control
[16] = ZR-75-1 cells, 48 h treatment, vs vehicle control; read-out: IC50, Sirtuin deacetylase activity
[17] = ZR-75-1 cells, 100 µM, vs vehicle
[18] = read-out: IC50, HDAC deacetylase activity, 48 h treatment

Row | Compound | lowest concentration that significantly decreased Sirtuin activity [1, 13] [µM] | IC50 [1, 14] [µM] | lowest concentration that significantly inhibited Sirtuin deacetylase activity [1, 15] [µM] | IC50 [1, 16] [µM] | Ki [2] [µM] | lowest concentration that significantly decreased NAT1 catalytic activity [2] [µM] | dose producing inhibition of KDAC enzymatic activity [3] [µM] | NAT1b transcript expression, effect in words [4, 17] | acetylated lysine residues of NAT1, effect in words ([5]; 100 µM) | NAT1b transcript expression, effect in words ([6]; 100 µM, vs vehicle) | acetylation of NAT1 lysine residues, effect in words ([7]; 100 µM) | Ki [8] [µM] | lowest concentration that significantly decreased NAT1 catalytic activity [8] [µM] | lowest concentration that significantly upregulated NAT1 catalytic activity [2] [µM] | lowest concentration that significantly decreased HDAC deacetylase activity [11] [µM] | lowest concentration that significantly increased NAT1 N-acetylation of PABA [8] [µM] | further results
1 | CC(NC(=O)c1ccccc1N=Cc1c(O)ccc2ccccc12)c1ccccc1 (centres unmarked) [Sirtinol, 2-[[(2-hydroxy-1-naphthalenyl)methylene]amino]-N-(1-phenylethyl)-benzamide] | 100 | 61.7 | 10 | 35.8 | 0.02 | 0.1 | 10 | significant decrease | increased | significantly decreased | increased | 21.9 | 1 | – | – | – | acetylation of NAT1 lysine residues, effect in words ([7]; 10 µM): increased
2 | N#CC(=Cc1ccc(-c2cc(Cl)ccc2Cl)o1)C(=O)Nc1cccc2ncccc12 [AGK2, 2-cyano-3-[5-(2,5-dichlorophenyl)-2-furanyl]-N-5-quinolinyl-2-propenamide] | 10 | 50.1 | 10 | 27.6 | 0.55 | 1 | 10 | – | increased | significantly decreased | increased | 10.8 | 1 | – | – | – | –
3 | CC(/C=C/C(=O)NO)=C\[C@@H](C)C(=O)c1ccc(N(C)C)cc1 [TSA, Trichostatin A] | – | – | – | – | – | – | 0.1 | – | – | – | – | – | – | 1 | 1 | 1 | lowest concentration that significantly inhibited HDAC enzymatic activity ([9]; 48 h): 0.1 µM; IC50 [9, 18]: 6.4 µM; NAT1 catalytic activity [10]: increase; IC50 [11, 18]: 13.5 µM; NAT1b transcription [12]: upregulation; NAT1b message expression, fold increase ([4]; ZR-75-1 cells, 1 µM): 6 fold; NAT1b transcript expression, fold increase [4, 17]: 9 fold; NAT1b transcript expression, effect in words ([4]; ZR-75-1 cells, 1, 10 and 100 µM, vs vehicle): more robust induction; lowest dose with significant upregulation of NAT1b message expression ([4]; ZR-75-1 cells): 1 µM; NAT1 acetylation, fold increase ([5]; 10 µM): 1.6 fold; NAT1 acetylation, fold increase ([5]; 100 µM): 2.1 fold; NAT1b transcription, fold increase ([6]; 0.01 µM): 3 fold; NAT1b transcript expression, fold increase ([6]; 10 µM, vs vehicle): over 10 fold; lowest dose with significant increase of NAT1b transcription [6]: 0.01 µM; NAT1 acetylation status, fold increase ([7]; 10 µM): 1.8 fold; NAT1 acetylation status, fold increase ([7]; 100 µM): 2.4 fold
4 | O=C(CCCCCCC(=O)Nc1ccccc1)NO [SAHA, Vorinostat] | – | – | – | – | – | – | – | – | – | – | – | – | – | 10 | 10 | 10 | NAT1b transcript expression, effect in words ([6]; 10 and 100 µM, vs vehicle): more NAT1b transcript expression
5 | NC(=O)C1CCCc2c1[nH]c1ccc(Cl)cc21 (centres unmarked) [EX527, 6-chloro-2,3,4,9-tetrahydro-1H-carbazole-1-carboxamide] | 1 | – | 1 | – | 0.39 | 0.01 | 1 | significant decrease | increased | significantly decreased | – | 7.03 | 0.1 | – | – | – | IC50 ([1]; read-out: IC50, Sirtuin deacetylase activity; MDA-MB-231 cells, 48 h treatment, vs vehicle control): 40.6 µM; IC50 ([1]; read-out: IC50, Sirtuin deacetylase activity; ZR-75-1 cells, 48 h treatment, vs vehicle control): 11.8 µM
